# Measurements taken from ChEMBL document CHEMBL1201862, “PubChem BioAssay data set” (2004).
# Calls of active or inactive are those of the source.
# Assays:
# Prothrombin = Prothrombin (Homo sapiens, UniProt P00734); assay: Thrombin 1536 HTS Dose Response Confirmation. [Related pubchem assays: 1046 (Thrombin 1536 HTS; hits were confirmed in this assay)]; assay type: functional
# [1] = target: T1, Voltage-gated N-type calcium channel alpha-1B subunit/Amyloid beta A4 precursor protein-binding family A member 1 (Homo sapiens, UniProt Q00975+Q02410); assay type: protein assay
# [2] = target: T1, Voltage-gated N-type calcium channel alpha-1B subunit/Amyloid beta A4 precursor protein-binding family A member 1; assay type: protein assay; remark: listed apart in the source
# INS1 = assay: INS-1E survival protection against cytokine death – cell-based, luminescence, retest, dose response (AID 449756); assay type: functional; conditions: Rattus norvegicus;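 note: cell death triggered by IL-1 beta plus TNF-alpha plus IFN-gamma mixture; protective hits raise ATP signal compared with cytokine alone wells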
# Streptokinase A = target: T2, Streptokinase A (Streptococcus pyogenes serotype M1, UniProt P10520); assay: viability-normalized secreted streptokinase activity reduction – plasminogen activation absorbance, OD405, dose response (AID 1914); assay type: functional, Streptococcus pyogenes M1 GAS;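 note: secreted streptokinase activity via plasminogen activation per viability signal from cell pellet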
# T2 sequence (P10520 whole entry): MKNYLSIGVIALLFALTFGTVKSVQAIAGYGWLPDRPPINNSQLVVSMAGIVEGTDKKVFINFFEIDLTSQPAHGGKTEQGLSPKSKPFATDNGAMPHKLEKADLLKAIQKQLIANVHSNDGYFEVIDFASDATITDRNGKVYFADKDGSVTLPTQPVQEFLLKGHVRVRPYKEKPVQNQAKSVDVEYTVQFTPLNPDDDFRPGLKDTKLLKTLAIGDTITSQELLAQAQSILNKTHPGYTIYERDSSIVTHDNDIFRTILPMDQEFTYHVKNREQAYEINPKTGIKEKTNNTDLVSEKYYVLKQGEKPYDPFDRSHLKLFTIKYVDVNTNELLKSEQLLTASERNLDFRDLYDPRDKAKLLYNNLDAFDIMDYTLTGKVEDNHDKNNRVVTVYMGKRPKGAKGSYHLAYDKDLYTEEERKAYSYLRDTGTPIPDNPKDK
# X-box-binding protein 1 = target: T3, X-box-binding protein 1 (Homo sapiens, UniProt P17861); assay type: functional, Cricetulus griseus;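 note: confirmatory dose-response counter-screen serving a CHOP assay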
# T3 sequence (P17861 whole entry): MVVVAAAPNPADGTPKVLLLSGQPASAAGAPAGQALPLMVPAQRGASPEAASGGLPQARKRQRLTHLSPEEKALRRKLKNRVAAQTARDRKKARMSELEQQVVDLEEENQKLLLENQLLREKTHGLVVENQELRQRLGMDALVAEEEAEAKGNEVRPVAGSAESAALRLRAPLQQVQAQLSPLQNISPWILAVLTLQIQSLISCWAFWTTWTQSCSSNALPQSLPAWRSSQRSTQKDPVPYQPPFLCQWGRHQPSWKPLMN
# [3] = target: T4, Calpain-2 catalytic subunit (Sus scrofa, UniProt P43367); assay: m-calpain protease blockers, concentration series – biochemical, fluorogenic peptide substrate, dose response (AID 1420); assay type: functional
# T4 sequence (P43367 whole entry): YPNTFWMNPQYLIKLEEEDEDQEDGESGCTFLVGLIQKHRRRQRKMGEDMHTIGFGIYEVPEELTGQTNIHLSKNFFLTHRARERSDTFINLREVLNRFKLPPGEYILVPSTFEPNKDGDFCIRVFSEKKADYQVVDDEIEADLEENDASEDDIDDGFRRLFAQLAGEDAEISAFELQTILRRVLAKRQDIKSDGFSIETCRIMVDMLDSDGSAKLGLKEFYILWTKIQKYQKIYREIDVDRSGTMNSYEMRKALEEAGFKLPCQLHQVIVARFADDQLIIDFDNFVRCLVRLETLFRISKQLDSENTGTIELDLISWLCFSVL
# [4] = target: Heat shock protein HSP 90-alpha (Homo sapiens, UniProt P07900); assay type: functional, organism-based
# Streptococcus = assay: GAS UMAA2166 growth inhibition – luminescence, BacTiterGlo, counter-screen for streptokinase expression inhibitor project, dose response (AID 1915); assay type: functional, organism-based;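 note: potency for reduction of bacterial viability or growth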
# [5] = test system: Streptococcus sp. 'group A'; assay: Streptococcus pyogenes SK(-)GAS viability under kanamycin – luminescence, BacTiterGlo, confirmation, counter-screen for streptokinase expression inhibitor project, dose response (AID 1900); assay type: functional, organism-based
# [6] = target: Peroxisome proliferator-activated receptor gamma/Nuclear receptor coactivator 2 (Homo sapiens, UniProt P37231); assay type: functional;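 note: agonist potency for raising coactivator recruitment to the receptor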
# Sequence of Peroxisome proliferator-activated receptor gamma/Nuclear receptor coactivator 2 (P37231 whole entry): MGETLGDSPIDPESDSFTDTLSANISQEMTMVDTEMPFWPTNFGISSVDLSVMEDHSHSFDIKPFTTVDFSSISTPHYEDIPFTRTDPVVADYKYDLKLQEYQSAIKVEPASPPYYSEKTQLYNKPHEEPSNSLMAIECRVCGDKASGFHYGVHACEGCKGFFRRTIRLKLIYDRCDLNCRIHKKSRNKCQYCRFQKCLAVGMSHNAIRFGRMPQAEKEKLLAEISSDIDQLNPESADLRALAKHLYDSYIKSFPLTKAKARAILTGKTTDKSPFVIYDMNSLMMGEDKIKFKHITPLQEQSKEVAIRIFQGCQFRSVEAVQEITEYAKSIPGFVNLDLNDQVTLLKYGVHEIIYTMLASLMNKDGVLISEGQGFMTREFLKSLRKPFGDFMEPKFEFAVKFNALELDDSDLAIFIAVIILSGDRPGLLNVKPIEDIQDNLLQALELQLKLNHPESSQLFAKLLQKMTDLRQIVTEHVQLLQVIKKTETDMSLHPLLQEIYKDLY
# Sequence of Peroxisome proliferator-activated receptor gamma/Nuclear receptor coactivator 2 (Q15596 whole entry, further chain): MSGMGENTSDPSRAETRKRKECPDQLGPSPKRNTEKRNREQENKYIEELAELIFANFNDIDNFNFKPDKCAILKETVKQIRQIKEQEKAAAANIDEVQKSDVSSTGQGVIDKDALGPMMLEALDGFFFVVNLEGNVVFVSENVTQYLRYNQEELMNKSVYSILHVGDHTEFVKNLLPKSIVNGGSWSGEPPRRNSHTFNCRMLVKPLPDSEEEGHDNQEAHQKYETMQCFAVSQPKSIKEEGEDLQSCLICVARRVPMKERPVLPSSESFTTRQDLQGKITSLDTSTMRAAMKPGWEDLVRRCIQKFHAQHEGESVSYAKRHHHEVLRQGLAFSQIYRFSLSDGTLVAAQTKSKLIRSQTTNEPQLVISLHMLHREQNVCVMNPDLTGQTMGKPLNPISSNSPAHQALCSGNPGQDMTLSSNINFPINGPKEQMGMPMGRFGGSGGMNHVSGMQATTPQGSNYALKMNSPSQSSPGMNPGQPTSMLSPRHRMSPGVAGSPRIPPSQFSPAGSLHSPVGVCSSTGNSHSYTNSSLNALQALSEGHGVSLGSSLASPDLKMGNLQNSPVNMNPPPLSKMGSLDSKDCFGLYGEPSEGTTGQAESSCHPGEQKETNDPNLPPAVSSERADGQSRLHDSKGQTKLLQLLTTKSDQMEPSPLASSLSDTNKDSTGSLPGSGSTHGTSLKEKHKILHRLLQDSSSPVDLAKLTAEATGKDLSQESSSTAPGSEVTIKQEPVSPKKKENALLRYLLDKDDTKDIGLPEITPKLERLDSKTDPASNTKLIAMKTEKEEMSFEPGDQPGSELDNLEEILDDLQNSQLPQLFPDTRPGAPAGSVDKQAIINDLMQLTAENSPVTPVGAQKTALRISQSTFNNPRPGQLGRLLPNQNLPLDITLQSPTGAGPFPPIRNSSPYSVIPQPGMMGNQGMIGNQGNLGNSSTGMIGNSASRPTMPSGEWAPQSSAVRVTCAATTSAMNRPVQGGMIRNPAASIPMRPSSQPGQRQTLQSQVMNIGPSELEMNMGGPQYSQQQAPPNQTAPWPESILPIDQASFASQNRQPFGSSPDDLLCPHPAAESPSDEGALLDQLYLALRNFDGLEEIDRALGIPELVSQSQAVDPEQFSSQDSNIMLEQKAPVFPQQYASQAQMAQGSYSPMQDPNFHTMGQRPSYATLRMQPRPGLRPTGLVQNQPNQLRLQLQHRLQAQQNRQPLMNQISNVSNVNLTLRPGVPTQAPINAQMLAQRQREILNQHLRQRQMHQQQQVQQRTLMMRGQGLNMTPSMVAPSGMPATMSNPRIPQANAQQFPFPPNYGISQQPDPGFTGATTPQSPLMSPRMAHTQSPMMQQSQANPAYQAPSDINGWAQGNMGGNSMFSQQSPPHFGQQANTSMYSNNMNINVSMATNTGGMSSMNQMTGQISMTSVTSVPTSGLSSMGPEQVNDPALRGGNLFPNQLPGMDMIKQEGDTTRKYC
# [7] = target: Peroxisome proliferator-activated receptor gamma/Nuclear receptor coactivator 1 (Homo sapiens, UniProt P37231); assay type: functional;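 note: agonist potency as compounds enhance coactivator SRC-1 recruitment to PPARgamma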
# [8] = target: Peroxisome proliferator-activated receptor gamma/Nuclear receptor coactivator 3 (Homo sapiens, UniProt P37231); assay type: functional;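 note: agonist potency for raising coactivator recruitment to the receptor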
# Sequence of Peroxisome proliferator-activated receptor gamma/Nuclear receptor coactivator 3 (P37231 whole entry): as the sequence (P37231 whole entry) above
# Sequence of Peroxisome proliferator-activated receptor gamma/Nuclear receptor coactivator 3 (Q9Y6Q9 whole entry, further chain): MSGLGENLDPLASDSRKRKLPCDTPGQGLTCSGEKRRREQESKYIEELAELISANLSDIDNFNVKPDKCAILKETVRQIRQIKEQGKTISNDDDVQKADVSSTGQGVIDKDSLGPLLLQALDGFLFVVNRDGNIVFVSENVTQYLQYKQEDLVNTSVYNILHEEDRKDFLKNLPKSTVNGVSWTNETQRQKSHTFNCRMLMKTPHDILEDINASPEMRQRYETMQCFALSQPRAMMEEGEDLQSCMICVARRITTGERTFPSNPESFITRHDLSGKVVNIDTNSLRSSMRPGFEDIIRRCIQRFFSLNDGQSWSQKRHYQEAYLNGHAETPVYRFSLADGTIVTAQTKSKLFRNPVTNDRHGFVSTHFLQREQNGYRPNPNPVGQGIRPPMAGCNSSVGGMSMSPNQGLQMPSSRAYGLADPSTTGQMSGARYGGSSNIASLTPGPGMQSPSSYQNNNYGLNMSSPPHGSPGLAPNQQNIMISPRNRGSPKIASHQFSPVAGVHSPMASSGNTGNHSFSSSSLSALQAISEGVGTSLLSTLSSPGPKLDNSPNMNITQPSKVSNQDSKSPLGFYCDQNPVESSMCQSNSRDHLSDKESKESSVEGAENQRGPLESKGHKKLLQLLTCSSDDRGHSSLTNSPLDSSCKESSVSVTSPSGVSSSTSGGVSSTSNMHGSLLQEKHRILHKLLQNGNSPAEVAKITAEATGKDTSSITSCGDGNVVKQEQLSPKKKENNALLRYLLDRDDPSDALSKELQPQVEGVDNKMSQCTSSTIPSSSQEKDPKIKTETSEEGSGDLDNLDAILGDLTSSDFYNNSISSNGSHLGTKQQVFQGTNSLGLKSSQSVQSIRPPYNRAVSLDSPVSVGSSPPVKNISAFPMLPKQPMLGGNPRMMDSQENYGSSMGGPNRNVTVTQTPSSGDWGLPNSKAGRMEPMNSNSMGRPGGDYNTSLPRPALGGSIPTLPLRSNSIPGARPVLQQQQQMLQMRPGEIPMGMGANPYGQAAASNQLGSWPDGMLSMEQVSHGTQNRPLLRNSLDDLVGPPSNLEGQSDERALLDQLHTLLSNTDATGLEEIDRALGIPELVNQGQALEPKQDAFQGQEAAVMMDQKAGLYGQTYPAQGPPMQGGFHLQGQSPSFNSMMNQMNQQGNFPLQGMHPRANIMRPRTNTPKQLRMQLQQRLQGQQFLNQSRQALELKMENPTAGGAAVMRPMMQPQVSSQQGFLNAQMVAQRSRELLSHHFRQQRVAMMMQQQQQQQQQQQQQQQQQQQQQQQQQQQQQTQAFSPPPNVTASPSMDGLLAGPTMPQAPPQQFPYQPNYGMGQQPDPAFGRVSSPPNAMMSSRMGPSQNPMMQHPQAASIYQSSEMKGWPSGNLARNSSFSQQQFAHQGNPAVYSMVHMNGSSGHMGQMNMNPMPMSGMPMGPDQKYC
# [9] = non-specific 3'UTR reporter inhibition in Clone20-Shn3RL – cell-based, Renilla luciferase, cherry-picked, counter-screen for Shn3 inhibitor project, dose response (AID 624133); assay type: functional
# [10] = reduction of Shn3 3'UTR-driven luciferase in osteoblasts – cell-based, Clone20 osteoblasts, firefly luciferase, cherry-picked, dose response (AID 624132); assay type: functional;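 note: firefly luciferase luminescence from reporter carrying the Shn3 3'UTR in osteoblasts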
# [11] = loss of viability in HepG2 cells – cell-based, CellTiter-Glo, cherry-picked, cytotoxicity control for Shn3 inhibitor project, dose response (AID 624134); assay type: functional
# [12] = target: Induced myeloid leukemia cell differentiation protein Mcl-1 (Homo sapiens, UniProt Q07820); assay type: functional
# Sequence of Induced myeloid leukemia cell differentiation protein Mcl-1 (Q07820 whole entry): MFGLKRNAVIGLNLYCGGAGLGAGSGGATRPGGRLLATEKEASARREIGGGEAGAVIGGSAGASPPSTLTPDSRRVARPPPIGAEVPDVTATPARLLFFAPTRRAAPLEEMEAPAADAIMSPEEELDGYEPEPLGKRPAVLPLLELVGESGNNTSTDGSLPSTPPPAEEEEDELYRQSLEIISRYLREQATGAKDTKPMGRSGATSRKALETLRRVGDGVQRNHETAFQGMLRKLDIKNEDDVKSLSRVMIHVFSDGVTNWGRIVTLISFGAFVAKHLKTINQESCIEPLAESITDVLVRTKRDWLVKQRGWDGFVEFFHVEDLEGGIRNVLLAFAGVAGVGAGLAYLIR
# [13] = target: T5, Corticotropin-releasing factor receptor 2/Corticotropin-releasing factor-binding protein (Homo sapiens, UniProt P24387+Q13324); assay: activators of CRF receptor 2 with binding protein – uHTS hits, confirmation (AID 602473); assay type: functional; conditions: read-out: EC50_Mean
# T5 sequence (Q13324 whole entry): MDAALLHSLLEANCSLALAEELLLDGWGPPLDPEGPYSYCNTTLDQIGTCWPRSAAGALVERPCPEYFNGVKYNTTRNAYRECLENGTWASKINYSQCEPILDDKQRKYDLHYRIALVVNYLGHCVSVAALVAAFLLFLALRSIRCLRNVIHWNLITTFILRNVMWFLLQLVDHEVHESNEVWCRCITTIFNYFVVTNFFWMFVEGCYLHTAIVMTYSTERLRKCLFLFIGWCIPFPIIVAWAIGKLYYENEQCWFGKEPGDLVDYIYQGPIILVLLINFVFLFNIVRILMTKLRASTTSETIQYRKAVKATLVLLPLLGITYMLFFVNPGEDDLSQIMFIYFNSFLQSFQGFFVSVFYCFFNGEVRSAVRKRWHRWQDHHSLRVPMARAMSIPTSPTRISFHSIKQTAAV
# T5 sequence (P24387 whole entry): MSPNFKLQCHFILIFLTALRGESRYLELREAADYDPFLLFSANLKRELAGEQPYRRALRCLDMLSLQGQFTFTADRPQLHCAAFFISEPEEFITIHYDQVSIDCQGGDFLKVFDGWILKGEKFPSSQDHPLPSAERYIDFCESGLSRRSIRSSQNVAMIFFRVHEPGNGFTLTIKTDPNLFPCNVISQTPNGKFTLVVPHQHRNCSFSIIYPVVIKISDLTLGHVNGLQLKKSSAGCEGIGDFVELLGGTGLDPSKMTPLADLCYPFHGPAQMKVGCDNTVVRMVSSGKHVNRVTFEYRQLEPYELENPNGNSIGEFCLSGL
# [14] = Luminescence Cell-Based Dose Response HTS to Identify Activators of Luciferase Translation or Activity in H4 […] Cells. [Related pubchem assays: 1829 (Project Summary), 1814 (Primary HTS)]; assay type: functional
# H4 = assay: Luminescence Cell-Based Dose Response HTS to Identify Activators of 5'UTR Stem-Loop Driven Prion Protein mRNA Translation in H4 Neuroglioblastoma Cells. [Related pubchem assays: 1829 (Project Summary), 1814 (Primary HTS)]; assay type: functional; conditions: Homo sapiens
# [15] = Luminescence Cell-Based Dose Confirmation HTS to Identify Activators of 5'UTR Stem-Loop Driven Alpha-Synuclein mRNA Translation in H4 Neuroglioblastoma Cells. [Related pubchem assays: 1829 (Project Summary), 1814 (Primary HTS)]; assay type: functional
# [16] = target: T6, Microphthalmia-associated transcription factor (Homo sapiens, UniProt O75030); assay: reducers of TRPM1 reporter luminescence, concentration series – cell-based, SK-MEL-5, cherry-picked, set 3, MITF inhibitor project, dose response (AID 493073); assay type: functional;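 note: SK-MEL-5 melanoma cells with luciferase driven by the MITF target TRPM1 promoter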
# T6 sequence (O75030 whole entry): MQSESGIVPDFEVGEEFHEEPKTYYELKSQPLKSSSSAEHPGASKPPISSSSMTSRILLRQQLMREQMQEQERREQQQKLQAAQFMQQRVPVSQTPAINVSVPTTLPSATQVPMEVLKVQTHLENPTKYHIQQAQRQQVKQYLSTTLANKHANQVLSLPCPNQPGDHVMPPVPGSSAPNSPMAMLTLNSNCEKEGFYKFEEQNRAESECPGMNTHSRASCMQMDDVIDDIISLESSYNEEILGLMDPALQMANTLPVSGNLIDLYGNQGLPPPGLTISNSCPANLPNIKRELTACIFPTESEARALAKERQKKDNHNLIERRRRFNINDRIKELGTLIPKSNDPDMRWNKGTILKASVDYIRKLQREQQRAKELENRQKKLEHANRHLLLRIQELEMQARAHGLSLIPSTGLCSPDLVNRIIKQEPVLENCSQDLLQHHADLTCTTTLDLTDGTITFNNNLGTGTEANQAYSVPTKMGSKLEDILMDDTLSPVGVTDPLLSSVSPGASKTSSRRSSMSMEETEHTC
smiles,measurement,setting,value
O=C(CSc1nc2nncc-2c(O)[nH]1)N1CCCCC1,IC50,Prothrombin,> 50 µM (not active)
O=C(NCc1ccco1)c1ccc(Cl)nc1,IC50,[1],26.5 µM (active)
same,IC50,[2],> 50 µM (inactive)
O=[N+]([O-])c1ccc(NC(S)=NCCc2ccc(Cl)cc2)cc1,AC50,INS1,7.38 µM (active)
same,EC50,Streptokinase A,18.9 µM (active)
same,Absolute IC50 (XBP1),X-box-binding protein 1,10 µM
same,IC50,[3],1.82 µM (not active)
same,AC50,[4],4.1 µM (active)
same,EC50,Streptococcus,33.2 µM (active)
same,EC50,[5],2.92 µM (active)
CN1CCN(NS(=O)(=O)c2cccs2)CC1,IC50,[1],51.3 µM (active)
same,IC50,[2],> 50 µM (inactive)
CCN(CC)c1ccc(/C=N/c2cc(C)ccc2C)c(O)c1,EC50,[6],> 79.4 µM (not active)
same,EC50,[7],> 79.4 µM (not active)
same,EC50,[8],> 79.4 µM (not active)
COc1cccc(CNc2ncnc3cc(Cl)ccc23)c1,AC50,[9],5.85 µM (active)
same,AC50,[10],3.73 µM (active)
same,AC50,[11],> 70 µM (inactive)
Cc1ccc(C(=O)Nc2ccc(N3CCCC3)cc2)cc1,IC50,[12],17.9 µM (not active)
same,EC50,[6],> 79.4 µM (not active)
same,EC50,[7],> 79.4 µM (not active)
same,EC50,[8],> 79.4 µM (not active)
C=CCn1c(Cc2cccs2)nnc1SCC(=O)c1ccc(F)cc1,EC50,[6],> 79.4 µM (not active)
same,EC50,[7],> 79.4 µM (not active)
same,EC50,[8],> 79.4 µM (not active)
O=c1c2ccccc2nc(-c2ccccc2)n1CCCN1CCOCC1,EC50,[6],> 79.4 µM (not active)
same,EC50,[7],> 79.4 µM (not active)
same,EC50,[8],> 79.4 µM (not active)
Cc1ccc(C2C=C(c3ccccc3)Nc3nc(N4C(=O)CCC4=O)nn32)cc1 (stereo unspecified),IC50,Prothrombin,10.9 µM (active)
same,EC50,[13],> 53 µM (inactive)
NC(=O)c1ccsc1NC(=O)CSc1nnc(C2CC2)n1Cc1ccccc1,IC50,Prothrombin,> 50 µM (not active)
Cn1c(=O)c(C(=O)NC2CCCCCCC2)c(O)c2ccccc21,EC50,[6],69.1 µM (not active)
same,EC50,[14],22.8 µM (active)
same,EC50,[7],> 79.4 µM (not active)
same,EC50,[8],> 79.4 µM (not active)
same,EC50,H4,> 120 µM (not active)
same,EC50,[15],15.6 µM (active)
Cn1cccc1C(=O)NC(=O)COC(=O)c1ccc(S(C)(=O)=O)c([N+](=O)[O-])c1,AC50,[16],9.23 µM (active)
same,AC50,[9],13.6 µM (active)
same,AC50,[10],15.1 µM (active)
same,AC50,[11],26 µM (active)
